Experimental data taken from US4988517A, “Method and composition for inhibiting colon carcinogenesis” (American Health Foundation, priority 1988, dated 1991).
“Also recorded” adds a separate entry of the source.

Assays:
[1] = system: benzo(a) pyrene-induced forestomach tumors; settings: mice; cited from earlier work
[2] = LD50 in humans, extrapolated from rats; set-up: unit not given here; settings: extrapolated: 125×70^0.75
Excerpt: (§1) The instant invention may open new approaches to the development of effective and less toxic novel selenium-containing chemopreventive agents. For example, although is too early to determine definitively the optimum dose which will be suitable for human use, we can estimate a dose based on the LD50 of BSC in rats (lethal dose at which 50% of the rats die). […] An order of magnitude of ten (10) times less than the LD50 may be appropriate for humans.

[3] = system: azoxymethane-induced small intestinal tumors; test: AOM-induced small intestinal tumor incidence and multiplicity; type: in vivo, male F344 rats
Excerpt: (§2) Experimental Procedure. Male F344 rats received at weaning were quarantined for 10 days and given access to AIN-76A semipurified diet (control diet). They were then be randomly allocated by weight to one of three dietary groups (control diet and 25 ppm BSC and 25 ppm benzylthiocyanate ("BTC") diets). […] Therefore one of our goals was to compare BSC with its sulfur analog BTC. Each dietary group was divided into AOM-treated (27 animals per subgroup) and vehicle-treated (12 animals per subgroup) subgroups and housed in plastic cages with filter tops in the animal holding room under controlled environmental conditions.
(§3) Beginning at 5 wk of age, groups of rats fed the control diet were transferred to diets containing 25 ppm BSC or 25 ppm BTC. At 7 wk of age, the animals in each group, except the vehicle-treated controls, received two weekly s.c. injections of AOM at a dose level of 15 mg/kg body weight/wk. Vehicle controls were treated with an equal volume of normal saline. One wk after AOM or saline treatment, animals receiving the BSC and BTC diets were transferred to the control diets and continued on this diet until the termination of the experiment. The 1-wk delay before transferring to control diet was to ensure complete metabolism and excretion of the carcinogen. The animals receiving the control diet continued on the same diet. The experiment was terminated 34 wk after the last AOM injection.
(§4) Both AOM-and vehicle-treated animals were sacrificed by CO2 euthanasia. Following laparotomy, the entire stomach, small intestine, and large intestine were resected and opened longitudinally, and the contents flushed with normal saline. The location, number, and size of the colon and small intestinal tumors were noted grossly under the dissection microscope. All other organs, including liver and kidneys, were also examined grossly for tumors. Tissues were fixed in 10% buffered formalin, embedded in paraffin blocks, and processed by routine histological methods with the use of eosin and hematoxylin stains.
(§5) Statistical Analysis. The data on tumor incidence were analyzed statistically by the x^2 method and Fischer's exact probability test, and tumor multiplicity was analyzed by Student's t test. Biochemical results were analyzed by Student's t test.
(§6) Using the above-identified procedures, a study was made of the effect of feeding benzylselenocyanate and its sulfur analogue, benzylthiocyanate, two (2) weeks before, during and until one (1) week after carcinogen administration (initiation phase) on intestinal carcinogenesis induced by azoxymethane (CAS: 25843-45-2) in male F344 rats.

[4] = system: azoxymethane-induced colon tumors; test: AOM-induced colon tumor incidence and multiplicity (initiation phase feeding); type: in vivo, male F344 rats
Excerpt: as §2, §3, §4, §5, §6

[5] = system: azoxymethane-induced ear duct tumors; test: AOM-induced ear duct tumor incidence; type: in vivo, male F344 rats; settings: 25 ppm in diet; AOM treated
Excerpt: as §2, §3
Both AOM-and vehicle-treated animals were sacrificed by CO2 euthanasia. Following laparotomy, the entire stomach, small intestine, and large intestine were resected and opened longitudinally, and the contents flushed with normal saline. The location, number, and size of the colon and small intestinal tumors were noted grossly under the dissection microscope. All other organs, including liver and kidneys, were also examined grossly for tumors. […]
as §5

[6] = General toxicity observation in rats fed the diets; type: in vivo, male F344 rats; settings: 25 ppm in diet
Excerpt: as §2, §3
(§7) Body weights were recorded weekly until the animals reach 16 wk of age and then every 4 wk. Six vehicle-treated animals randomly chosen from each dietary group while they were consuming experimental and control diets were used for tissue and blood plasma glutathione peroxidase analysis.

[7] = LD50 in rats; settings: rat, in vivo
Excerpt: as §1

[8] = Body weights of male F344 rats fed the experimental diets; type: in vivo; settings: for Body wt, Initial (Wk 0) / Body wt, wk 4 / Body wt, wk 8 / Body wt, wk 16 / Body wt, wk 22 / Body wt, wk 30 / Body wt, wk 37 (at termination): 25 ppm in diet, Mean ± SD
Excerpt: as §2, §3, §7

[9] = system: selenium-dependent glutathione peroxidase; test: Selenium-dependent glutathione peroxidase activity in tissues of rats fed the diets; type: in vivo, male F344 rats
Protocol: as §7
Biochemical Determination. For the determination of tissue and blood plasma glutathione peroxidase activity, 6 vehicle-treated animals from each dietary group, while the animals were on experimental and control diets, were used. Before sacrificing the animals, blood was obtained under ether anesthesia by cardiac puncture with a syringe. They were then decapitated,and liver, kidneys, small intestine, and colon were rapidly removed. The liver was perfused with ice-cold normal saline. The small intestine and colon were slit open longitudinally and freed from all the contents, and the mucosa was scraped with a microscope glass slide. The liver and kidneys were trimmed free of connective tissue, minced with scissors, and homogenized for 10 s in 3 volumes of buffer, pH 7.3 (0.25 sucrose-10 mM EDTA-50 mM potassium phosphate) using a Brinkman Polytron at low speed. The colonic and small intestinal mucosal scrapings were immediately placed into 3 volumes of the same buffer and homogenized similarly. The homogenates were centrifuged in a Sorvall RC-2B centrifuge at 10,000×g, 4° C., for 20 min. The supernatant was centrifuged in a Beckman Ultracentrifuge at 100,000×g, 4° C., for 1 h. The resulting cytosol fraction was used for determination of glutathione peroxidase activity and protein.
Glutathione peroxidase activity was determined spectrophotometrically according to a modification of the enzyme-coupled assay procedure of Paglia and Valentine. The reaction mixture consisted of 50 mM potassium phosphate buffer (pH 7.0), 1 mM EDTA, 0.2 mM NADPH, 1 enzyme unit/ml oxidized glutathione-reductase, 1 mM glutathione, and 1.5 mM cumene hydroperoxide in a total volume of 1 ml. The cytosol was added to the above mixture and allowed to incubate 5 min. at room temperature. Total glutathione peroxide was measured with cumene hydroperoxide as a substrate. Selenium-dependent glutathione peroxide was measured with tert-butyl hydroperoxide. The reaction was started with the addition of substrate solution. Absorbance was measured at 340 nm, and activity was measured from the slope of the lines as mol NADPH oxidized/min/mg protein. Blank reactions without cytosol were run simultaneously. Protein concentration in the cytosol fraction was measured by the method of Lowry et al. with bovine serum albumin as standard.
as §5

[10] = system: azoxymethane-induced metastasis; test: AOM-induced metastasis; type: in vivo, male F344 rats
Excerpt: as §2, §3, §4

[11] = system: non-selenium-dependent glutathione peroxidase; test: Non-selenium-dependent glutathione peroxidase activity in tissues of rats fed the diets; type: in vivo, male F344 rats; settings: among the dietary groups
Protocol: as §7
Biochemical Determination. For the determination of tissue and blood plasma glutathione peroxidase activity, 6 vehicle-treated animals from each dietary group, while the animals were on experimental and control diets, were used. Before sacrificing the animals, blood was obtained under ether anesthesia by cardiac puncture with a syringe. They were then decapitated,and liver, kidneys, small intestine, and colon were rapidly removed. The liver was perfused with ice-cold normal saline. […]
Glutathione peroxidase activity was determined spectrophotometrically according to a modification of the enzyme-coupled assay procedure of Paglia and Valentine. […] Total glutathione peroxide was measured with cumene hydroperoxide as a substrate. Selenium-dependent glutathione peroxide was measured with tert-butyl hydroperoxide. […] Absorbance was measured at 340 nm, and activity was measured from the slope of the lines as mol NADPH oxidized/min/mg protein. […] Protein concentration in the cytosol fraction was measured by the method of Lowry et al. with bovine serum albumin as standard.

[12] = 25 ppm in diet 2 wk before to 1 wk after AOM
[13] = 25 ppm in diet, 27 (BSC) or 26 (BTC) animals/group
[14] = 25 ppm in diet 5 wk, Mean ± SE (n = 6)

N#C[Se]Cc1ccccc1 [BSC, benzylselenocyanate]
Inhibition of benzo(a)pyrene-induced forestomach tumors [1]: effective inhibitors of benzo(a) pyrene-induced forestomach tumors in mice | approximate LD50 in humans [2]: ~3025 | Small intestinal tumor incidence, Adenocarcinoma [3, 12]: 15 % of animals with tumors | Small intestinal tumor incidence, Adenoma [3, 12]: 4 % of animals with tumors | Small intestinal tumor incidence, Total [3, 12]: 19 % of animals with tumors | Number of animals with small intestinal tumors, Adenocarcinoma [3, 13]: 4 number of animals | Number of animals with small intestinal tumors, Adenoma [3, 13]: 1 number of animals | Number of animals with small intestinal tumors, Total [3, 13]: 5 number of animals | Small intestinal tumor multiplicity, Adenocarcinoma ([3]; 25 ppm in diet, Mean ± SD): 0.15 0.3 no. of tumors/animal | Small intestinal tumor multiplicity, Adenoma ([3]; 25 ppm in diet, Mean ± SD): 0.04 0.2 no. of tumors/animal | Small intestinal tumor multiplicity, Total ([3]; 25 ppm in diet, Mean ± SD): 0.19 0.3 no. of tumors/animal | Incidence of small intestinal adenocarcinomas (in words) ([3]; differences among groups not significant): slightly reduced the incidence of small intestinal adenocarcinomas | Inhibition of AOM-induced tumors in the small intestine (in words) ([3]; rat, in vivo): to a certain extent, in the small intestine | Small intestinal tumor multiplicity, total (in words) ([3]; vs BTC diet and control diet): significantly inhibited in animals fed the BSC diet compared to those fed the BTC diet and control diet | Multiplicity of small intestinal adenocarcinomas (in words) ([3]; vs control diet): significant inhibition in the multiplicity of small intestinal adenocarcinomas; also recorded: significantly inhibits | Colon tumor incidence, Adenocarcinoma [4, 12]: 11 % of animals with tumors | Colon tumor incidence, Adenoma [4, 12]: 44 % of animals with tumors | Colon tumor incidence, Total (adenomas plus adenocarcinomas) [4, 12]: 48 % of animals with tumors | Number of animals with colon tumors, Adenocarcinoma [4, 13]: 3 number of animals | Number of animals with colon tumors, Adenoma [4, 13]: 12 number of animals | Number of animals with colon tumors, Total [4, 13]: 13 number of animals | Colon tumor multiplicity, Adenocarcinoma ([4]; 25 ppm in diet, Mean ± SD): 0.11 ± 0.3 no. of tumors/animals | Colon tumor multiplicity, Adenoma ([4]; 25 ppm in diet, Mean ± SD): 0.70 ± 0.9 no. of tumors/animals | Colon tumor multiplicity, Total ([4]; 25 ppm in diet, Mean ± SD): 0.81 ± 1.0 no. of tumors/animals | Number of tumors per group, colon Adenocarcinoma ([4]; 25 ppm in diet, in parentheses): 3 number of tumors per group | Inhibition of AOM-induced colon tumors (in words) ([4]; initiation phase of carcinogenesis): inhibits AOM-induced tumors in the colon; also recorded: inhibited colon tumors during the initiation phase of carcinogenesis | Incidence of adenocarcinomas of the colon (in words) ([4]; vs control diet): significantly lower in rats fed the BSC diet than in those fed the control diet; also recorded: significantly inhibits | Incidence of total colon tumors (in words) ([4]; vs control diet): significantly lower in rats fed the BSC diet than in those fed the control diet | Number of colon adenocarcinomas per animal (in words) ([4]; vs control diet and BTC diet): significally inhibited in animals fed the BSC diet compared to those fed the control diet and BTC diet; also recorded: significantly inhibits | Number of total colon tumors per animal (in words) ([4]; vs control diet and BTC diet): significally inhibited in animals fed the BSC diet compared to those fed the control diet and BTC diet | Multiplicity of colon adenomas (in words) ([4]; vs control diet and BTC diet, not statistically significant): slight inhibition of multiplicity of adenomas in the BSC diet as compared to the control diet and BTC diet | % of animals with ear duct tumors [5]: 7 % of animals | Evidence of toxicity in animals fed the diet [6]: no evidence of toxicity | LD50 [7]: 125 mg/kg | Body weights of animals fed experimental vs control diets ([8]; AOM or vehicle treated, in words): comparable | Body wt, Initial (Wk 0) ([8]; AOM treated): 40 ± 4 g | Body wt, wk 4 ([8]; AOM treated): 174 ± 9 g | Body wt, wk 8 ([8]; AOM treated): 279 ± 15 g | Body wt, wk 16 ([8]; AOM treated): 348 ± 16 g | Body wt, wk 22 ([8]; AOM treated): 390 ± 21 g | Body wt, wk 30 ([8]; AOM treated): 430 ± 20 g | Body wt, wk 37 (at termination) ([8]; AOM treated): 449 ± 22 g | Body wt, Initial (Wk 0) ([8]; Vehicle treated): 41 ± 4 g | Body wt, wk 4 ([8]; Vehicle treated): 179 ± 12 g | Body wt, wk 8 ([8]; Vehicle treated): 284 ± 19 g | Body wt, wk 16 ([8]; Vehicle treated): 364 ± 19 g | Body wt, wk 22 ([8]; Vehicle treated): 402 ± 20 g | Body wt, wk 30 ([8]; Vehicle treated): 448 ± 26 g | Body wt, wk 37 (at termination) ([8]; Vehicle treated): 467 ± 21 g | Selenium-dependent glutathione peroxidase activity, Kidney [9, 14]: 1.70 0.29 μmol NADPH oxidized/min/mg protein | Selenium-dependent glutathione peroxidase activity, Liver [9, 14]: 1.88 0.60 μmol NADPH oxidized/min/mg protein | Selenium-dependent glutathione peroxidase activity, Plasma [9, 14]: 0.78 0.14 μmol NADPH oxidized/min/mg protein | Selenium-dependent glutathione peroxidase activity, Colon ([9]; 25 ppm in diet 5 wk, colonic mucosa, Mean ± SE (n = 6)): 0.56 0.14 μmol NADPH oxidized/min/mg protein | Selenium-dependent glutathione peroxidase activity, Small intestine ([9]; 25 ppm in diet 5 wk, small intestinal mucosa, Mean ± SE (n = 6)): 0.71 0.13 μmol NADPH oxidized/min/mg protein | Selenium-dependent glutathione peroxidase activity (in words) ([9]; kidney, colon and small intestine): increase in selenium-dependent glutathione peroxidase activity in the kidney, colon, and small intestine; also recorded: significant increase in the enzyme activity in kidney and colonic and small intestinal mucosae of animals fed the BSC diet compared to that in those animals fed the BTC diet and control diet | Selenium-dependent glutathione peroxidase activity (in words) ([9]; liver and plasma): no effect on this enzyme activity in the liver and plasma; also recorded: not affected | No. of animals with metastasis ([10]; 25 ppm in diet, AOM treated): 0 No. of animals | AOM-induced metastasis (in words) ([10]; several organs): inhibits AOM-induced metastasis in several organs; also recorded: none of the animals in BSC and BTC diet groups developed metastasis | Non-selenium-dependent glutathione peroxidase activity (in words) [11]: no differences in the activity of non-selenium-dependent glutathione peroxidase activity among the dietary groups
